In the supplement of paper PMC12819154, “High-throughput peptide-centric local stability assay extends protein–ligand identification to membrane proteins, tissues and bacteria” (Nature Structural & Molecular Biology, 2025):

Tests used:
Assay in all cases: pEC50 of peptide local stability change
[1] = molecular target: UniProt P06612; settings: peptide sequence: DLPTSGSAAKK; direction: stabilized; replicate design: treated separately
Outline: (§1)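 Each tabulated entry is a mean pEC50 taken across replicates. Four 50 µl replicates of desalted, MgCl2-supplemented E. coli K-12 BW25113 lysate (1.2 mg ml^−1) were exposed to ATP at seven doses from 10 µM to 10 mM, or to water, for 30 min at 25 °C, then trypsin-digested for 4 min at 22 °C and analysed by DIA LC–MS/MS. Treated/control peptide ratios from every replicate were fitted to a four-parameter log-logistic model, and an entry was kept only if fit R^2 exceeded 0.9 in at least three replicates and the coefficient of variation of the estimate was at most 0.25.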

[2] = molecular target: UniProt P07109; settings: peptide sequence: HVSTHVIFLHQGK; direction: stabilized; replicate design: treated separately
Outline: as §1

[3] = molecular target: UniProt P27550; settings: peptide sequence: NTSFAPGNVSIK; direction: stabilized; replicate design: treated separately
Sequence of UniProt P27550 (P27550 whole entry): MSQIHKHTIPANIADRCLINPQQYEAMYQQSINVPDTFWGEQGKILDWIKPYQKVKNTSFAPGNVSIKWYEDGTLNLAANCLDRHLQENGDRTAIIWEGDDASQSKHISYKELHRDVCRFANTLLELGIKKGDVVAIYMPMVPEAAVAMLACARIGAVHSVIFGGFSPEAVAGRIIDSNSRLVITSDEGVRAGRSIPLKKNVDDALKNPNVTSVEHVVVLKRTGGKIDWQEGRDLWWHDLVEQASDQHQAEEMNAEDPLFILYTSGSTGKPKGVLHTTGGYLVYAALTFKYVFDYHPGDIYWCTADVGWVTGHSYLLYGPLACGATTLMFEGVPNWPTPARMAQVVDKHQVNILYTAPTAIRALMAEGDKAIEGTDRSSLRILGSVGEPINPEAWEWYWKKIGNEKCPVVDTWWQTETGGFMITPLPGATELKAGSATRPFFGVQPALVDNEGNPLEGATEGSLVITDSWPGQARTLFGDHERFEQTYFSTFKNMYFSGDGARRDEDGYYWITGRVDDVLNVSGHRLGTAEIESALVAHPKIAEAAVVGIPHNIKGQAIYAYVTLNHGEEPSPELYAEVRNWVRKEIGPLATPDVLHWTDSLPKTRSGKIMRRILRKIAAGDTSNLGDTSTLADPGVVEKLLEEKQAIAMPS
Outline: as §1

[4] = molecular target: UniProt P37760; settings: peptide sequence: TGQVGWELQR; direction: stabilized; replicate design: treated separately
Outline: as §1

[5] = molecular target: UniProt P43672; settings: peptide sequence: LMLGQLQADSGR; direction: stabilized; replicate design: treated separately
Sequence of UniProt P43672 (P43672 whole entry): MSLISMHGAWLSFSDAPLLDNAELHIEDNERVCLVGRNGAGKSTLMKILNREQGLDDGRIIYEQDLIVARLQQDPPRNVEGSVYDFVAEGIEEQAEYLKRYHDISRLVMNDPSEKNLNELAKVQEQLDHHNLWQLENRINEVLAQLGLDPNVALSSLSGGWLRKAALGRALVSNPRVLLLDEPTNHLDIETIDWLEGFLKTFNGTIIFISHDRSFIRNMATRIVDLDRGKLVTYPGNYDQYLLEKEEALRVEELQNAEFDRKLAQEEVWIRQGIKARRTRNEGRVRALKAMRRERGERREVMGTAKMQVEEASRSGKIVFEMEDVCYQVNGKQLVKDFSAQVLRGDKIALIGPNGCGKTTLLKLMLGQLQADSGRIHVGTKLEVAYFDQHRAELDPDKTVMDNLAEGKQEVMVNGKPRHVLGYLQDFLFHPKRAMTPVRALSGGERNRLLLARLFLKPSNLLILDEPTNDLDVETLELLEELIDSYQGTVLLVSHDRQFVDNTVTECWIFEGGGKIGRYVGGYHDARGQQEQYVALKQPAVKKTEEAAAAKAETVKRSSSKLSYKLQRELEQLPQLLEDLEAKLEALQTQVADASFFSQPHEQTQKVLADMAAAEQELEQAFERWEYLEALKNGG
Outline: as §1

[6] = molecular target: UniProt P07395; settings: peptide sequence: EISRFPANRR; direction: stabilized; replicate design: treated separately
Outline: as §1

[7] = molecular target: UniProt P07118; settings: peptide sequence: ITPAHDFNDYEVGKR; direction: stabilized; replicate design: treated separately
Sequence of UniProt P07118 (P07118 whole entry): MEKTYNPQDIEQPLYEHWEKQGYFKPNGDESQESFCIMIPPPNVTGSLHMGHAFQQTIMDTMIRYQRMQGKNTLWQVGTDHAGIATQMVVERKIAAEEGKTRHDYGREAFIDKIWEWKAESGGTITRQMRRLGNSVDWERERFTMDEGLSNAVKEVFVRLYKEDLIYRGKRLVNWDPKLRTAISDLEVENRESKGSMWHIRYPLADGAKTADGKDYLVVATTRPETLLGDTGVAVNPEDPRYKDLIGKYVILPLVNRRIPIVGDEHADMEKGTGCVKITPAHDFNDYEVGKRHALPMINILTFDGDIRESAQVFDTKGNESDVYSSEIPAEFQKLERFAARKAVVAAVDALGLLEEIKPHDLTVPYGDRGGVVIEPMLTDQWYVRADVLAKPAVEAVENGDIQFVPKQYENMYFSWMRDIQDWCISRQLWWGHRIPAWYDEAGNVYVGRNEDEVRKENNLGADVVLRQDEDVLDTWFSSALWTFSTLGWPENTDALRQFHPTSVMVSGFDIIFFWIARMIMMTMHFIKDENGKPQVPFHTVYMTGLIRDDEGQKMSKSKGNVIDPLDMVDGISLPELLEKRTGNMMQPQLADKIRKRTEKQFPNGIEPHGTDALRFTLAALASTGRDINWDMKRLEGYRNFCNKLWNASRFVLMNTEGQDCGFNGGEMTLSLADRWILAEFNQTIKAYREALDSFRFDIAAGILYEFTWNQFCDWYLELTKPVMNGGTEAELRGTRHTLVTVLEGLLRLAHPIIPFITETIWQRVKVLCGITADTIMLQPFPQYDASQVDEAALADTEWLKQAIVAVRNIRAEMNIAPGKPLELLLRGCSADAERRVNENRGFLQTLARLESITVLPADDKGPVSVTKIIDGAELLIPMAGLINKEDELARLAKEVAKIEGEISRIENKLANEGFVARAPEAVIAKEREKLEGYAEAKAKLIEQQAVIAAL
Outline: as §1

[8] = molecular target: UniProt P37744; settings: peptide sequence: LSVAMMGR; direction: stabilized; replicate design: treated separately
Sequence of UniProt P37744 (P37744 whole entry): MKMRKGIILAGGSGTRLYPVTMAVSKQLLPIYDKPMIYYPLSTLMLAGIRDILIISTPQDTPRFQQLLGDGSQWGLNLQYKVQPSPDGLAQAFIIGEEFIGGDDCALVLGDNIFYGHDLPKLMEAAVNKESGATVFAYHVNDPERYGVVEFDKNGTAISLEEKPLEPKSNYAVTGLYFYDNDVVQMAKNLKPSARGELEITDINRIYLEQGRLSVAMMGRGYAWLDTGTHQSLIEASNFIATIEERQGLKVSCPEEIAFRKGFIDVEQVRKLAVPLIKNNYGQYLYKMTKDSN
Outline: as §1

[9] = molecular target: UniProt P39359; settings: peptide sequence: EVADFLINK; direction: stabilized; replicate design: treated separately
Sequence of UniProt P39359 (P39359 whole entry): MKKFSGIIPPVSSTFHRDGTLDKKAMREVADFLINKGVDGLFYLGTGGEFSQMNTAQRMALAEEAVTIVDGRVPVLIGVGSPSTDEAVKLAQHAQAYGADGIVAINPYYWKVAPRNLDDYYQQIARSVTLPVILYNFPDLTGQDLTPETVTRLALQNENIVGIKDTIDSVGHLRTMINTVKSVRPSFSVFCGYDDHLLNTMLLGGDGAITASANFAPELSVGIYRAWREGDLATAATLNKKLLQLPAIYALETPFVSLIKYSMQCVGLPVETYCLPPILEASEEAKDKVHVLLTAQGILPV
Outline: as §1

[10] = molecular target: UniProt P0AEC3; settings: peptide sequence: DSHGGKPATGTGIGLAVSR; direction: stabilized; replicate design: treated separately
Sequence of UniProt P0AEC3 (P0AEC3 whole entry): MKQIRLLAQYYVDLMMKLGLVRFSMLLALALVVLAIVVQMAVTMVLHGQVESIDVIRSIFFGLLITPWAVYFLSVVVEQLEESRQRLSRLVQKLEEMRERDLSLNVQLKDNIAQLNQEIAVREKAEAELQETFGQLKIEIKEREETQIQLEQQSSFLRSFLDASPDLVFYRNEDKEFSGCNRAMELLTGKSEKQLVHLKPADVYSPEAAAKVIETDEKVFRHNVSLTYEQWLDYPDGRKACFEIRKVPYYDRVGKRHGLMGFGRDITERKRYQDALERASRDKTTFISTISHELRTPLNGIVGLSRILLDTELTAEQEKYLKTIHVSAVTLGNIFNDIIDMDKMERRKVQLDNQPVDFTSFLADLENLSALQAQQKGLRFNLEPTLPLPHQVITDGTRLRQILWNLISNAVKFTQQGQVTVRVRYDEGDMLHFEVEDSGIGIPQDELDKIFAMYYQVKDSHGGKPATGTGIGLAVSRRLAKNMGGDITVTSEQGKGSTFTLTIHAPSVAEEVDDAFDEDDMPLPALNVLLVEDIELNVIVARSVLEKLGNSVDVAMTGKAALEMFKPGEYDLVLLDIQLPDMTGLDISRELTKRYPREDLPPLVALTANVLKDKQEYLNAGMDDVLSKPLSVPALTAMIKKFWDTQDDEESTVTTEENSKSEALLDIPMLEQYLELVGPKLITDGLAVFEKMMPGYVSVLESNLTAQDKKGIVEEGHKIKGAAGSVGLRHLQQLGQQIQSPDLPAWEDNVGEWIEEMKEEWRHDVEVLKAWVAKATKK
Outline: as §1

[11] = molecular target: UniProt P13009; settings: peptide sequence: TPPVTLEAAR; direction: stabilized; replicate design: treated separately
Sequence of UniProt P13009 (P13009 whole entry): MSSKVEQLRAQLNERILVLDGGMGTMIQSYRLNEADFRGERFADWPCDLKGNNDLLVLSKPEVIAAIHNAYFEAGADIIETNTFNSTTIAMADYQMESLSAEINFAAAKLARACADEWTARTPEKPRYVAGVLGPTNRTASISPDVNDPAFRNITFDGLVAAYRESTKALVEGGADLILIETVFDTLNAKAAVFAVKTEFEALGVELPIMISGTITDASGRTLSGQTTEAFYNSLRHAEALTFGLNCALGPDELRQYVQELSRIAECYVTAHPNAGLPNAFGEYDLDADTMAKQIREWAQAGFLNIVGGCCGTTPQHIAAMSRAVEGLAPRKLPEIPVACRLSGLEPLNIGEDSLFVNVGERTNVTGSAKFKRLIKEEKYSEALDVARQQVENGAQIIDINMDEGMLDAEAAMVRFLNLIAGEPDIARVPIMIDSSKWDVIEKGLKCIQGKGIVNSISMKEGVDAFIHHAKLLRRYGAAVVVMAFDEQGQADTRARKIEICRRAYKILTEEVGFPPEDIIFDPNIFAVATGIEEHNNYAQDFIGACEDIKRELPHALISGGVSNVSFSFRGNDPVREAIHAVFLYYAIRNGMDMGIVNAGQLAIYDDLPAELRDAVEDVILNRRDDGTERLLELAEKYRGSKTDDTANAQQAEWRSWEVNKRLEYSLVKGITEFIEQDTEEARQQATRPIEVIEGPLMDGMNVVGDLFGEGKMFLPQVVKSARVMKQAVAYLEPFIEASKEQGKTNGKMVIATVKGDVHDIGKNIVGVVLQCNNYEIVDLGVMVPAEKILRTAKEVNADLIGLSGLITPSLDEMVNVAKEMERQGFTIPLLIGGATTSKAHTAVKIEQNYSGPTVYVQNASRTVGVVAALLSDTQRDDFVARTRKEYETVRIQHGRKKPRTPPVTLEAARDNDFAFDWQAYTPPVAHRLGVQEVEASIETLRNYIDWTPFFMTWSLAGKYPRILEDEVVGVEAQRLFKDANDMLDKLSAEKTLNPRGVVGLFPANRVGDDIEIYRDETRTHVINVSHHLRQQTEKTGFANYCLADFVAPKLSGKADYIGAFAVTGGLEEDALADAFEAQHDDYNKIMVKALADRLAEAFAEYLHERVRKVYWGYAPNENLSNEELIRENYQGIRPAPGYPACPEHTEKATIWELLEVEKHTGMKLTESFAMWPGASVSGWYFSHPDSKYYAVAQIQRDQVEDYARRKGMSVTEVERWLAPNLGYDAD
Outline: as §1

Nc1ncnc2c1ncn2[C@@H]1O[C@H](COP(=O)(O)OP(=O)(O)OP(=O)(O)O)[C@@H](O)[C@H]1O [adenosine 5'-triphosphate]
Settings | pEC50 of peptide local stability change
[1] | 2.16
[2] | 3.88
[3] | 3.34
[4] | 3.12
[5] | 3.81
[6] | 3.77
[7] | 3.75
[8] | 3.22
[9] | 3.49
[10] | 2.99
[11] | 2.53
